Paper PMC2361514 (British Journal of Cancer, 2005)
Where two headings read alike, the source gives them in different places. Marks after values point to notes of the source that are not given here.

Tests used:
cancer patients = conditions: cited from earlier work; for MTD: ref Adjei et al, 2003b
[1] = Plasma pharmacokinetics of gemcitabine and dFdU (HPLC) with or without tipifarnib; conditions: for AUC(0-t) / Cmax: 750 mg
Procedure: (§1) In cycle 2, tipifarnib pharmacokinetics was then determined on day 2. For gemcitabine, 2 ml blood samples were taken at 0, 15, 30, 35, 45, 60, 90 min and at 2, 2.5, 24, 32 and 48 h after the start of the 30 min infusion during cycle 1 and at 0, 15, 30, 35, 45, 60, 90 min during cycle 2. Both gemcitabine and its metabolite 2′, 2′ -difluoro-2′-deoxy-uridine (dFdU) were measured in plasma. Of each blood sample, 1 ml was added to 10 μl of tetrahydrouridine (10 mg ml^−1), after which it was centrifuged for 5 min at 4°C and 1500 g. Subsequently, the plasma layer was stored at −20°C until analysis. Additionally, 15 ml blood samples were taken at 0, 1.5, 4 and 24 h after the start of the gemcitabine infusion for the determination of the triphosphate metabolite of gemcitabine (dFdCTP) in WBC ([Sparidans et al, 2002]). Isolation of WBC was performed using a Ficoll density gradient (Pharmacia, Sweden) as described previously ([Heinemann et al, 1998]). All gemcitabine levels were measured using a validated high-performance liquid chromatography (HPLC) method, analogous to the method of [Freeman et al (1995)]. […] Blood samples were immediately centrifuged for 5 min at 4°C and 1500 g. Unbound platinum was obtained by ultrafiltration using the MPS-1 system equipped with 3 kDa YMT membranes (Amicon Division, Danvers, MA, USA). The resulting plasma ultrafiltrate and total plasma were immediately stored at −20°C until analysis by atomic absorption spectrometry (AAS) ([Van Warmerdam et al, 1995]). […] For tipifarnib, 5 ml blood samples were drawn at 0, 1, 2, 3, 5, 8 and 12 h after the morning dose. Immediately after collection, the blood samples were centrifuged for 5 min at 4°C at 1500 g. Separated plasma was stored at −20°C for subsequent drug analysis by a validated HPLC method with UV detection ([Zujewski et al, 2000]).
(§2) The following pharmacokinetic parameters were determined using noncompartmental analysis with WinNonLin software (version 4.1, Pharsight Corporation, Mountain View, CA, USA): the maximum plasma concentration (Cmax), time to maximum plasma concentration (tmax), the elimination half-life (t1/2), the area under the plasma concentration–time curve from 0 to 48 h (AUC0–48) of gemcitabine and dFdU and the AUC0–23 for total and unbound (free) platinum. […] In addition, the AUC0–24 of dFdCTP and the AUA0–23 (area under the adduct curve) ([Schellens et al, 1996]) of Pt-DNA adducts were calculated in WBC. For tipifarnib, Cmax, tmax and AUC0-12 were determined.
(§3) The primary pharmacokinetic parameters of interest for the statistical analyses were Cmax and AUC. Only data from patients who completed the pharmacokinetic blood sampling during the first and second cycles and had no dose reduction were included in the analyses. […] A significance level of 0.05 was used for all analyses. The statistical analyses were performed using the SAS statistical software program (version 6.12; SAS Institute, Inc., Cary, NC, USA).

[2] = dFdCTP in white blood cells with or without tipifarnib; type: in vivo, human; conditions: mononuclear blood cell, adjusted to 750 mg m^−2 gemcitabine
plasma proteins = conditions: cited from earlier work
[3] = tested on: patients with advanced solid tumours; test: Phase I trial: treatment emergent grade 3 or 4 haematological and nonhaematological toxicities (NCI-CTC v2.0), all cycles; conditions: human, in vivo
Procedure: Tipifarnib was supplied by Johnson & Johnson Pharmaceutical Research and Development as 100 mg tablets. […] Tipifarnib was administered orally twice daily, with intervals of 12 h. Tipifarnib was given on days 1–7 of each 21-day cycle. […] To minimise nephrotoxicity, a pre-and posthydration schedule was implemented on day 1. […] At least three patients were treated at each dose level. If DLT occurred in a patient during cycle 1, three additional patients were enrolled in that cohort. MTD was defined at which 2 or more out of 6 patients (2⩾6) experienced DLT. […] These toxicities were only considered DLT if they occurred during the first cycle of treatment. In the case of grade 3–4 haematological toxicities, the dose of gemcitabine was adjusted in the next cycle based on nadir blood cell counts. Dose adjustments were relative to the starting dose of gemcitabine received in the previous cycle of therapy. If the nadir granulocyte count was >500 μl^−1 and the nadir platelet count >50 000 μl^−1, 100% of the planned gemcitabine dose was administered. […] The administration of tipifarnib was discontinued when haematological DLT occurred. After recovery to at least grade 1, tipifarnib was reinstituted at the same dose level in conjunction with a dose modification of gemcitabine. If a patient continued to experience haematological DLT after one dose modification of gemcitabine, the dose of tipifarnib was decreased with 100 mg b.i.d. If at any time the dose of tipifarnib was to be reduced to <100 mg b.i.d. or if retreatment needed to be delayed >2 weeks after the scheduled restarting of a cycle, the patient went off-study. […] If grade 4 nonhaematological toxicities occurred, patients went off-study. No dose adjustments were made for transaminase elevation unless associated with clinical signs or symptoms. […] If at any time the dose of tipifarnib was to be reduced to <100 mg b.i.d. or if retreatment needed to be delayed >2 weeks after the scheduled restarting of a cycle, the patient went off-study.
Complete patient history, physical examination, haematology, chemistry, urinalysis and electrocardiogram were performed at baseline and before each cycle of treatment. Physical examination, haematology and chemistry were also evaluated on days 8 and 15 of each cycle. Audiometry was performed at baseline and was repeated if clinically indicated. Indicator lesions were measured before start of treatment and every two cycles, as a basis for the assessment of activity of the treatment. All toxicities observed were graded according to the Common Toxicity Criteria ([NCI-CTC, Version 2.0, 1998]).

[4] = tested on: patients with advanced solid tumours; test: Phase I trial: dose-limiting toxicities in cycle 1 and maximum tolerated dose; type: in vivo, human
Procedure: Tipifarnib was supplied by Johnson & Johnson Pharmaceutical Research and Development as 100 mg tablets. […] Tipifarnib was administered orally twice daily, with intervals of 12 h. Tipifarnib was given on days 1–7 of each 21-day cycle. […] To minimise nephrotoxicity, a pre-and posthydration schedule was implemented on day 1. […] At least three patients were treated at each dose level. If DLT occurred in a patient during cycle 1, three additional patients were enrolled in that cohort. MTD was defined at which 2 or more out of 6 patients (2⩾6) experienced DLT. […] These toxicities were only considered DLT if they occurred during the first cycle of treatment. In the case of grade 3–4 haematological toxicities, the dose of gemcitabine was adjusted in the next cycle based on nadir blood cell counts. Dose adjustments were relative to the starting dose of gemcitabine received in the previous cycle of therapy. If the nadir granulocyte count was >500 μl^−1 and the nadir platelet count >50 000 μl^−1, 100% of the planned gemcitabine dose was administered. […] The administration of tipifarnib was discontinued when haematological DLT occurred. After recovery to at least grade 1, tipifarnib was reinstituted at the same dose level in conjunction with a dose modification of gemcitabine. […]

[5] = Plasma pharmacokinetics of tipifarnib (HPLC-UV) as monotherapy or with gemcitabine/cisplatin; type: in vivo, human; conditions: single 200 mg oral dose
Procedure: as §1, §2, §3

[6] = cited from earlier work
[7] = combination with tipifarnib given for 14 days

In the case of N.N.[Cl][Pt][Cl] [cisplatin], the MTD (cancer patients; [7]) is listed as 75 mg m^−2.

In the case of Nc1ccn([C@@H]2O[C@H](COP(=O)(O)OP(=O)(O)OP(=O)(O)O)[C@@H](O)C2(F)F)c(=O)n1 [dFdCTP], the “Pharmacokinetic (drug–drug) interaction” value ([1]; cycle 1 (with tipifarnib) vs cycle 2 (without tipifarnib), Cmax and AUC, ANOVA) was “no drug–drug interaction”, the “AUC0–24, mean (s.d.)” value ([2]; Gem/cis without tipifarnib) was 18.3 (40.9) ^i h nanomol mg protein^−1 and the “AUC0–24, mean (s.d.)” value ([2]; Gem/cis+tipifarnib 100–300 mg) was 14.7 (22.9) ^j h nanomol mg protein^−1.

With O=c1ccn([C@@H]2O[C@H](CO)[C@@H](O)C2(F)F)c(=O)[nH]1 [dFdU, 2′, 2′ -difluoro-2′-deoxy-uridine] the AUC(0-t) ([1]; human, in vivo) was 237000 ng·h/mL, the Cmax ([1]; human, in vivo) was 25600 ng/mL and the “Pharmacokinetic (drug–drug) interaction” value ([1]; in vivo) was “significant difference”.

In the case of Nc1ccn([C@@H]2O[C@H](CO)[C@@H](O)C2(F)F)c(=O)n1 [gemcitabine], the “Binding to plasma proteins” value (plasma proteins; ref Shipley et al, 1992) is given as “negligible”, the MTD (cancer patients; [7]) is given as 1000 mg m^−2 and the AUC(0-t) ([1]; human, in vivo) is given as 6710 ng·h/mL. For the same molecule, the Cmax ([1]; human, in vivo) was 12500 ng/mL, the Median tmax ([1]; human, in vivo, iv) was 0.50 h and the “Pharmacokinetic (drug–drug) interaction” value ([1]; in vivo) was “no drug–drug interaction”. For the same molecule, the “Patients with a dose reduction owing to haematological toxicities” value [3] was 16%, the “Patients with a dose reduction owing to nonhaematological toxicities” value [3] was 13% and the “Maximum tolerated dose (MTD)” value ([4]; i.v., in the combination of tipifarnib, gemcitabine (days 1 and 8) and cisplatin (day 1), 21-day cycle (dose level 3)) was 1000 mg m^−2.

In the case of Cn1cncc1[C@@](N)(c1ccc(Cl)cc1)c1ccc2c(c1)c(-c1cccc(Cl)c1)cc(=O)n2C [tipifarnib], the “Bound to plasma proteins” value (plasma proteins; ref Janssen Research Foundation, 2003) is given as 99%, the Recommended dose (cancer patients; continuous tipifarnib with gemcitabine 1000 mg m^−2 on days 1, 8 and 15 every 4 weeks, ref Patnaik et al, 2003) is given as 200 mg b.i.d and the “Dose up to which the regimen was safe” value (cancer patients; monotherapy, 7 consecutive days, cancer patients, ref Zujewski et al, 2000) is given as “at least 300 mg b.i.d”. For the same molecule, the MTD (cancer patients; tipifarnib for 14 days with gemcitabine days 1 and 8 and cisplatin day 1) was 300 mg b.i.d, the AUC(0-t) ([5]; human, tipifarnib as monotherapy (cycle 2 day 2), n=20, read-out: AUC0-12, mean (s.d.)) was 2630 ng·h/mL and the Cmax ([5]; human, tipifarnib as monotherapy (cycle 2 day 2), n=20, read-out: Cmax, mean (s.d.)) was 499 ng/mL. For the same molecule, the Median tmax ([5]; tipifarnib as monotherapy (cycle 2 day 2), n=20) was 3.0 h, the “AUC0-12, mean (s.d.)” value ([5]; with gemcitabine 750–1000 mg m^−2 and cisplatin 75–100 mg m^−2 (cycle 1 day 1), n=22) was 2971 (2089) ^c h ng ml^−1 and the Median tmax ([5]; with gemcitabine 750–1000 mg m^−2 and cisplatin 75–100 mg m^−2 (cycle 1 day 1), n=23) was 2.1 h. The “Preclinical interaction of the combination” value ([6]; tipifarnib combined with cisplatin, ref Skrzat et al, 1999) was “additive”, the “Preclinical interaction of the combination” value ([6]; tipifarnib combined with gemcitabine, ref Janssen Research Foundation, 2003) was “synergy” and the “Patients with a dose reduction owing to haematological toxicities” value [3] was 10%. For the same molecule, the “Patients with a dose reduction owing to nonhaematological toxicities” value [3] was 3% and the “Maximum tolerated dose (MTD)” value ([4]; oral, days 1–7 of each 21-day cycle, in combination with gemcitabine and cisplatin (dose level 3)) was 200 mg b.i.d.
